“Also recorded” adds a separate entry of the source.
Experiment: Degradation of the ions in the concomitant presence of LP (NMR signal at 49 ppm)
Assay type: physicochemical
Conditions: for signal at 49 ppm / wanted ions in concomitant presence of LP: after 48 h
Method: During the production of the wanted ions, if one keeps the enzyme in the mixture, one observes a gradual loss of the wanted ions, and, after 48 h, a total loss of the wanted ions due to enzymatic oxidation of the wanted ions, as illustrated in FIG. 19 in which one observes a decrease in the intensity of the signal as a function of the time of presence of the enzyme in the matrix (solution).

With I2SCN^− and/or I(SCN)2^− ions the “signal at 49 ppm in concomitant presence of LP” value (3 h of incubation) was “pronounced decrease of the signal”, the “signal at 49 ppm in concomitant presence of LP” value (after 1 h) was “slight decrease” and the “signal at 49 ppm / wanted ions in concomitant presence of LP” value was “total disappearance of the signal; also recorded: complete disappearance”. The “signal at 49 ppm / wanted ions in concomitant presence of LP” value (listed as wanted ions) was “total loss”.
